Like-named read-outs stand apart in the source and are kept apart here.
How the values were obtained:
A2780/RCIS = assay: MTT antiproliferative activity assay; assay type: cell-based; details: Homo sapiens, read-out: IC50 A2780/RCIS
Procedure: (§1) The MTT assay was done by seeding 5.0×10^3 human cancer cells or normal cells per well in 96-well plates ([34]-[36]). Following overnight incubation of the cells in 5% CO2 at 37 °C, culture medium of each well was exchanged with medium having reference anti-cancer agent CA-4 as well as different concentrations of synthesized compounds and RPMI (no drug) negative control and cells were incubated 48 hr. Then MTT solution (25 μl, 4 mg ml ^-1) was added to each well and the cells were incubated at 37 °C (for 3 hr). Finally, formazan crystals were dissolved in DMSO (100 μl) and plates were read in a plate reader (Synergy H4, USA) at 540 nm. The cytotoxic activity of the synthesized compounds was evaluated against different human cancer cell lines including […]-7 and MCF-7/MX, and normal cells by MTT assay. Combretastatin A-4 (CA-4) was used as the positive control.

A2780 = assay: MTT antiproliferative activity assay; assay type: cell-based; details: Homo sapiens, 48 hr
Procedure: as §1

MCF-7/MX = assay: MTT antiproliferative activity assay; assay type: cell-based; details: Homo sapiens, MCF7/MX, read-out: IC50 MCF-7/MX
Procedure: as §1

MCF-7 = assay: MTT antiproliferative activity assay; assay type: cell-based; details: Homo sapiens, MCF7, 48 hr
Procedure: as §1

HUVEC = assay: MTT assay on normal cells; assay type: cell-based; details: Homo sapiens, 48 hr
Procedure: as §1

| IC50 (A2780/RCIS; A2780, MTT, 48 hr) [µM] | IC50 (A2780) [µM] | IC50 (MCF-7/MX; MTT, 48 hr) [µM] | IC50 (MCF-7) [µM] | melting point [°C] | Structure (SMILES) | IC50 (HUVEC) [µM] | IC50 (A2780/RCIS; A2780, 48 h) [µM] | IC50 (MCF-7/MX; 48 h) [µM] |
| --- | --- | --- | --- | --- | --- | --- | --- | --- |
| 51.5 ± 4.86 | 27.1 ± 3.25 | 62.8 ± 5.27 | 63.7 ± 4.35 | 182 to 185 | COc1ccc(Nc2cc(C)nc3cc(OC)c(OC)c(OC)c23)cc1OC [Compound 7b, N-(3,4-dimethoxyphenyl)-5,6,7-trimethoxy-2-methylquinolin-4-amine] | > 100 |  |  |
| 33.8 ± 3.48 | 39.9 ± 3.74 | 44.1 ± 3.57 | 42.8 ± 3.48 |  | COc1ccc(/C=C/c2cc(Cl)c3c(OC)c(OC)c(OC)cc3n2)cc1 [Compound 9d, E-4-Chloro-5,6,7-trimethoxy-2-(4-methoxystyryl)quinoline] | 96.2 ± 5.38 |  |  |
| 11.7 ± 2.63 | 47.9 ± 4.25 | 28 ± 2.64 | > 100 | 163 to 165 | COc1cc(/C=C/c2cc(Cl)c3c(OC)c(OC)c(OC)cc3n2)cc(OC)c1OC [Compound 9f, E-4-Chloro-5,6,7-trimethoxy-2-(3,4,5-trimethoxystyryl)quinoline] | > 100 |  |  |
| > 100 | > 100 | > 100 | > 100 | 122 to 124 | COc1ccc(/C=C/c2cc(Cl)c3c(OC)c(OC)c(OC)cc3n2)cc1OC [Compound 9e, E-4-Chloro-5,6,7-trimethoxy-2-(3,4-dimethoxystyryl)quinoline] | > 100 |  |  |
| > 100 | > 100 | > 100 | > 100 | 173 to 176 | COc1cc2nc(/C=C/c3ccc(F)cc3)cc(Cl)c2c(OC)c1OC [Compound 9c, E-4-Chloro-5,6,7-trimethoxy-2-(4-fluorostyryl)quinoline] | > 100 |  |  |

Further lines, the compound ahead of its results:

| Structure (SMILES) | IC50 (A2780/RCIS; A2780, MTT, 48 hr) [µM] | IC50 (A2780) [µM] | IC50 (MCF-7/MX; MTT, 48 hr) [µM] | IC50 (MCF-7) [µM] | melting point [°C] | IC50 (HUVEC) [µM] | IC50 (A2780/RCIS; A2780, 48 h) [µM] | IC50 (MCF-7/MX; 48 h) [µM] |
| --- | --- | --- | --- | --- | --- | --- | --- | --- |
| COc1cc2nc(/C=C/c3ccc([N+](=O)[O-])cc3)cc(Cl)c2c(OC)c1OC [Compound 9g, E-4-Chloro-5,6,7-trimethoxy-2-(4-nitrostyryl)quinoline] | > 100 | > 100 | > 100 | > 100 | 162 to 164 | > 100 |  |  |
| COc1ccc(Nc2cc(C)nc3cc(OC)c(OC)c(OC)c23)cc1 [Compound 7a, 5,6,7-Trimethoxy-N-(4-methoxyphenyl)-2-methylquinolin-4-amine] | 29.9 ± 2.87 | 16.4 ± 2.13 | 65.9 ± 4.42 | 55.3 ± 5.37 | 191 to 194 | 55.9 ± 3.87 |  |  |
| COc1ccc(/C=C\c2cc(OC)c(OC)c(OC)c2)cc1O [CA-4, Combretastatin A-4, reference compound] |  | 0.249 ± 0.091 |  | 0.438 ± 0.15 |  | 0.565 ± 0.26 | 0.229 ± 0.11 | 1.49 ± 0.27 |
